The values that follow come from patent publication US20250381165A1, “Method of Use for Benzofuran Compounds” (Tampa Bay Research Institute, Inc., priority 2024, published 2025).

Data set [1] relates to IMG. The experiment in a line: CellTiter-Glo cell viability, IMG. Format: cell-based, murine. The conditions noted are these: Mus musculus. The protocol:
BzFβ was then examined for its effect on the viability of several murine and human cell lines and primary murine splenocytes. The cytotoxicity of BzFβ was assessed using the CellTiter-Glo […] assay system according to manufacturer's instructions to determine BzFβ's effect on the viability of several murine and human cell lines and primary murine splenocytes.
DC2.4 cell line (Dr. Kenneth Rock, University of Massachusetts), RAW 264.7 cell line (American Type Culture Collection (ATCC), Manassas, VA; TIB 71), and IMG cell line (Millipore™, Merck KGaA, Burlington, MA; cat. no. SC-C134) were each cultured in complete Dulbecco's Modified Eagle Medium (cDMEM) containing […] glucose (Gibco™, Thermo Fisher Scientific Inc., Waltham, MA; cat. no. 10566-016) and supplemented with GlutaMAX, 50 U/mL penicillin and 50 µg/mL streptomycin (Gibco™; cat. no. 15070-063) and 10% heat inactivated fetal bovine serum (FBS) (R&D Systems, Inc., Minneapolis, MN; cat. no. […]
The cytotoxicity of BzFβ was assessed using the CellTiter-Glo cell […] viability assay system […] cat. no. […] CellTiter-Glo was added 1:1 in the media and the level of chemiluminescence was measured using luminescence at wavelengths of 200 nm to 700 nm through a photomultiplier on BioTek's Synergy HTX multimode microplate reader. […]
Background: ATP-based viability assays read luminescence as a measure of living cells.

Data set [2] in a line: Solubility in alkaline water. The format is physicochemical. The conditions noted are these: pH 10, aqueous buffer, read-out: limit to the solubility in alkaline water (converted). The protocol: Mice were gavaged with BzFβ at doses ranging from 25 mg/kg body to 100 mg/kg body weight, injected intravenously (iv) with 50 μg BzFβ or injected intramuscularly with BzFβ at 25 to 40 mg/kg body weight. For two weeks post-treatment, water intake and weight were monitored. […] The limit to the solubility of BzFβ in alkaline water is 4 mg, therefore no further doses were tested.

≈ marks a conversion by molar mass, not a printed value.

Regarding `O=C(O)/C=C/c1ccc2occc2c1` [BzFβ, (2E)-3-(1-benzofuran-5-yl)prop-2-enoic acid], the IC50 in data set [1] was 316 µM. Besides, in data set [2], the solubility is 20 mg/mL (≈ 106 mM).

Broadly, the IC50 is the concentration at which inhibition is half-maximal. In general, solubility refers to how much of the substance goes into solution per volume.
